Measured values as given in US12558342B2, “2-[2-({12,12-dimethyl-4-oxo-6-phenyl-3,11-dioxatricyclo[8.4.0.0,2,7]tetradeca-1,5,7,9-tetraen-8-yl}oxy)acetamido]benzamide and derivatives as inhibitor of clock:bmal1 interaction for the treatment of circadian rhythm diseases and disorders” (KOC UNIVERSITESI, priority 2019, dated 2026).

Assays:
BMAL1 = target: T1, BMAL1 (Mus musculus, UniProt Q9WTL8); test: LC-MS/MS of pull-down precipitates, BMAL1; format: binding; details: Competitor 0 μM
T1 construct: expressed in transfected cells; host or cells: HEK 293T
Protocol: HEK293T cells were transiently transfected with tag-free hsClock and mBmal1. After 48 hours of transfection, cells were harvested and whole cell lysate was prepared with ice-cold lysis buffer (50 mM Tris-HCl pH 7.4, 2 mM EDTA, 1 mM MgCl2, 0.2% NP-40, 1 mM sodium orthovanadate, 1 mM sodium fluoride and protease inhibitor cocktail) followed by centrifugation at 7000×g at 4° C. for 10 minutes. Lysate was diluted with ice-cold 2× binding buffer (100 mM Tris-HCl pH 7.4, 300 mM NaCl, 0.2% NP-40, 2 mM sodium orthovanadate, 2 mM sodium fluoride, and protease inhibitor cocktail) 27. The lysate was divided into three fractions to be treated with either DMSO, or 20 μM of bitoinylated-CLK8 (bait) with or without 200 μM CLK8 (competitor). […]
The next step was to check for off-targets of CLK8. […] Since the amount of precipitated endogenous CLOCK was insufficient to be detected in LC-MS/MS, whole cell lysate of HEK 293T cells overexpressing CLOCK and BMAL1 were used for LC-MS/MS. We determined proteins that potentially bind to CLK8 by utilizing a minimum threshold for peptide spectrum matches and coverage equal to those of the main target, CLOCK. We also excluded proteins that have been detected in negative controls of the CRAPome database (32), assuming them as abundant sticky proteins. […] BMAL1 was detected in lower amounts when a competitor was present. […]

CLOCK:BMAL1 interaction = target: T2, CLOCK:BMAL1 interaction (Homo sapiens, UniProt O15516); test: Mammalian two-hybrid assay; format: cell-based; details: HEK293T
T2 construct: expressed in transfected cells; host or cells: HEK293T
T2 sequence (O15516 1-846): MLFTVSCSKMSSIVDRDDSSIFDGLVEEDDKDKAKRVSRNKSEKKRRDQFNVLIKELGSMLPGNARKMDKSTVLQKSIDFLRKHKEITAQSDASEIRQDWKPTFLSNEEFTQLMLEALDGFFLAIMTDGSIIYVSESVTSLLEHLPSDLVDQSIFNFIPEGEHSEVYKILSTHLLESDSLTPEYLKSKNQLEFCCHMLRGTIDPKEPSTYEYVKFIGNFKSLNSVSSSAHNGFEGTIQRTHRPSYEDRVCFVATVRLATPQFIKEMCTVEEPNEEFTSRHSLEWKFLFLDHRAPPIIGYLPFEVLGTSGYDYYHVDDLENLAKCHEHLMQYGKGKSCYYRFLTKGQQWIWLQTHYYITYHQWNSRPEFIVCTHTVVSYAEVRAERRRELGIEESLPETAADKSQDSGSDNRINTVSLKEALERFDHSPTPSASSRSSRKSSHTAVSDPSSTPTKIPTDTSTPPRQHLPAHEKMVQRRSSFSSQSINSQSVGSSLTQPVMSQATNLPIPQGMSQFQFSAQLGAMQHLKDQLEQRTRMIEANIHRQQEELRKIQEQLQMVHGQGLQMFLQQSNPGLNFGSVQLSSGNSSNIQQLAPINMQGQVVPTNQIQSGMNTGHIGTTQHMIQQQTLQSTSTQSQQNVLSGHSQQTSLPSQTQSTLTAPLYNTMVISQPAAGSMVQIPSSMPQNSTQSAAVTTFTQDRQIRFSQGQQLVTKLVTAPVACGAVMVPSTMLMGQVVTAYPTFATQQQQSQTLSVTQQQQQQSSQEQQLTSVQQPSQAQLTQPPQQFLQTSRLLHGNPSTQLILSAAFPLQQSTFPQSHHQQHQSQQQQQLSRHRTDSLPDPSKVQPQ
Protocol: The procedure was carried out according to Checkmate-Promega's protocol. Samples were examined in triplicate sets in a 96-well plate. HEK293T cells with the density of 4×10^4 cell/well were transfected with 50 ng of pG5-luc, 50 ng of pACT-mBmal1, 50 ng of pBind-hsClock plasmids and 0.5 ng of pRL-TK for normalization. Following the transfection, the cells were treated with different concentrations of small molecules. Control cells were treated with 0.5% vehicle (DMSO).
Ultimately, luminescence was measured using Dual-Luciferase Reporter Assay System (Promega) with Fluoroskan Ascent FL plate reader.

[1] = target: T3, CLOCK and BMAL1 interaction (Homo sapiens, UniProt O15516); test: Co-immunoprecipitation of FLAG-CLOCK and BMAL1; format: biochemical; details: 10 μM and 40 μM
T3 construct: expressed in transfected cells; host or cells: HEK 293T
T3 sequence (O15516 1-846): T2 sequence (O15516 1-846)
Protocol: HEK 293T cells co-expressing wild type or F80A-K220A mutant FLAG-tagged Clock together with tag-free Bmal1 were lysed with ice-cold lysis buffer (50 mM Tris-HCl PH 7.7, 150 mM NaCl, 0.1% Triton X-100, 1 mM PMSF and protease inhibitor cocktail) and centrifuged at 15000×g at 4° C. for 20 minutes. DMSO and different concentrations of CLK8 were added to the whole cell lysate. The mixtures were incubated with anti-FLAG M2 affinity gel (Sigma-Aldrich) at 4° C. overnight with continuous mixing. After three wash steps, bound proteins were eluted with Laemmli buffer heated at 95° C. for 7 minutes. CLOCK and BMAL1 were detected by monoclonal anti-FLAG M2 antibody (Sigma-Aldrich) and anti-BMAL1 (Santa Cruz Biotechnology) respectively. The amount of co-precipitated BMAL1 was normalized with the amount of precipitated CLOCK.
HEK 293T cells co-expressing wild type or F80A-K220A mutant FLAG-tagged Clock together with tag-free Bmal1 were lysed with ice-cold lysis buffer (50 mM Tris-HCl pH 7.7, 150 mM NaCl, 0.1% Triton X-100, 1 mM PMSF and protease inhibitor cocktail) and centrifuged at 15000×g at 4° C. for 20 minutes. DMSO and different concentrations of CLK8 were added to the whole cell lysate. […] CLOCK and BMAL1 were detected by monoclonal anti-FLAG M2 antibody (Sigma-Aldrich) and anti-BMAL1 (Santa Cruz Biotechnology) respectively. […]

T1 sequence (Q9WTL8 whole entry): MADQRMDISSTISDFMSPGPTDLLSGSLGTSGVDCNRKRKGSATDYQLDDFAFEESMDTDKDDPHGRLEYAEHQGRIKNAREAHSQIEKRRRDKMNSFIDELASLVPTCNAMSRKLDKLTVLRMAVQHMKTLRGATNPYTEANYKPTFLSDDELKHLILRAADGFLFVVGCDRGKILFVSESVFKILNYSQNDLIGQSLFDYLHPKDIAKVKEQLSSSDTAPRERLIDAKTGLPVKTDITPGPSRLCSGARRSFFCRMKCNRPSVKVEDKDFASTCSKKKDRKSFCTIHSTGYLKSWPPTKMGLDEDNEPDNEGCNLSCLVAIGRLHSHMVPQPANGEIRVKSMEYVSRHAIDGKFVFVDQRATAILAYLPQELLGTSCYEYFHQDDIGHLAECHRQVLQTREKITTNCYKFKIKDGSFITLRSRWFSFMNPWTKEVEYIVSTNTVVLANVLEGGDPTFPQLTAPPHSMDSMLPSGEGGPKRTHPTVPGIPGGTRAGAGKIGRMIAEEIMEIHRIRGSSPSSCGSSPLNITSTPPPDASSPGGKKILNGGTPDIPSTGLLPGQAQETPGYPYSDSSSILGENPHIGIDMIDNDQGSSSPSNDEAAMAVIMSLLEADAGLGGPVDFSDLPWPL

## CC1(C)CCc2c(cc(OCC(=O)Nc3ccccc3C(N)=O)c3c(-c4ccccc4)cc(=O)oc23)O1 [CLK8, 2-[2-({12,12-dimethyl-4-oxo-6-phenyl-3,11-dioxatricyclo [8.4.0.0,2,7]tetradeca-1,5,7,9-tetraen-8-yl}oxy)acetamido] benzamide]
BMAL1
  Peptide spectrum matches, BMAL1: 56
CLOCK:BMAL1 interaction
  interaction between CLOCK and BMAL1 (two-hybrid): reduces the interaction between CLOCK and BMAL1
[1]
  amount of co-precipitated BMAL1: reduced as the concentration of CLK8 increased
